In patent publication US7314624B2 (priority 2001, dated 2008):

Key:
Assay type in all cases: cell-based
[1] = tested on: Influenza virus A/AA/6/60
S. dysenteriae = details: 15 minutes; bacteria alone 910,000 CFU; X8P 1/100 dilution; EDTA 50-25 μM
S. typhimurium = tested on: S. typhimurium

4-(1,1,3,3-Tetramethylbutyl)phenvl-polyethylene glycol [TRITON X-100]
inhibition of infectivity of influenza A virus [1]: only partially inhibited
reduction of influenza A infection of MDCK cells [1]: completely ineffective

O=C(O)CN(CCN(CC(=O)O)CC(=O)O)CC(=O)O [EDTA, ethylenediamine-tetraacetic acid]
bacterial count after treatment (CFU) (S. dysenteriae): 320,000 CFU
bacterial count after treatment (CFU) (S. typhimurium): 790,000 CFU
